Data as given in patent publication US20250140406A1, “CLASSIFYING TUMORS AND PREDICTING RESPONSIVENESS” (Oncocyte Corporation, priority 2022, published 2025).
Square brackets hold non-standard residues; d marks the D form. Peptide text beside a SMILES is read from it.

Legend:
[1] = tested on: cancer cell lines classified IM, MSL, M; assay: PRISM screen compound sensitivity correlated with IM, MSL and M subtype of cell lines (101 gene signature); format: cell-based; settings: for IM Corr test: correlation of PRISM compound sensitivity with IM subtype correlation; for M Corr test: correlation of PRISM compound sensitivity with M subtype correlation; for MSL Corr test: correlation of PRISM compound sensitivity with MSL subtype correlation; for TNBCType train: 101 gene signature
[2] = tested on: cancer cell lines, DetermaIO classes; assay: Association of PRISM compound sensitivity with DetermaIO (DTIO) cell line classes; format: cell-based
[3] = subtype (IM, MSL or M) with which PRISM compound sensitivity is negatively correlated, training cell set
[4] = correlation of PRISM compound sensitivity with DTIO, test cell set
[5] = correlation of PRISM compound sensitivity with DTIO, training cell set
[6] = subtype (IM, MSL or M) with which compound sensitivity is negatively correlated, training cell set (371 cell lines)
[7] = correlation of PRISM compound sensitivity with DTIO (DetermaIO), test cell set (188 cell lines)
[8] = correlation of PRISM compound sensitivity with DTIO (DetermaIO), training cell set (371 cell lines)
[9] = subtype (IM, MSL or M) assigned to the compound by negative correlation of PRISM sensitivity with subtype, training cell set (371 cell lines)
[10] = subtype (IM, MSL or M) the PRISM compound sensitivity is associated with, training cell set (371 cell lines)
[11] = correlation of PRISM compound sensitivity with DTIO, test cell set (188 cell lines)
[12] = correlation of PRISM compound sensitivity with DTIO, training cell set (371 cell lines)

| Compound | DTIO Corr test [2, 4] | DTIO Corr train [2, 5] | IM Corr test ([1]; test cell set (188 cell lines)) | M Corr test ([1]; test cell set (188 cell lines)) | MSL Corr test ([1]; test cell set (188 cell lines)) | DTIO Corr test [2, 7] | DTIO Corr train [2, 8] | also measured |
| --- | --- | --- | --- | --- | --- | --- | --- | --- |
| CCN(CC)C(=S)[S-].O.O.O.[Na+] [ditiocarb-sodium-trihydrate] | −0.1096 | −0.01519 |  |  |  |  |  | IM Corr test ([1]; test cell set): −0.07988; M Corr test ([1]; test cell set): 0.03103; MSL Corr test ([1]; test cell set): −0.01951; TNBCType train [1, 3]: MSL |
| C/C(=N\NC(=N)N)c1cc(NC(=O)CCCCCCCCC(=O)Nc2cc(/C(C)=N/NC(=N)N)cc(/C(C)=N/NC(=N)N)c2)cc(/C(C)=N/NC(=N)N)c1 [semapimod] | 0.207 | 0.01264 |  |  |  |  |  | IM Corr test ([1]; test cell set): 0.1267; M Corr test ([1]; test cell set): −0.09225; MSL Corr test ([1]; test cell set): −0.0812; TNBCType train [1, 3]: MSL |
| CC(O)CN1CCN(CC(=O)[O-])CCN(CC(=O)[O-])CCN(CC(=O)[O-])CC1.[Gd+3] (centres unmarked) [gadoteridol] | −0.08228 | −0.04116 | −0.02624 | −0.02135 | −0.00929 |  |  | TNBCType train [1, 6]: MSL |
| COc1ccc([C@H]2CNC(=O)C2)cc1OC1CCCC1 [rolipram-S(+)] |  |  | −0.03939 | −0.06383 | −0.06426 | −0.07222 | −0.1043 |  |
| O=C1NC(=O)C(c2cnc3ccccn23)=C1c1cn2c3c(cc(F)cc13)CN(C(=O)N1CCCCC1)CC2 [LY2090314] |  |  | −0.01913 | 0.0417 | −0.00714 | 0.003829 | −0.08353 | TNBCType train [1, 9]: MSL |
| CNC(=O)c1cnn(-c2nc(N)c3ncn([C@@H]4O[C@H](CO)[C@@H](O)[C@H]4O)c3n2)c1 [regadenoson] | −0.1015 | −0.1586 | −0.08832 | 0.02954 | −0.05759 |  |  |  |
| C[C@H](N[C@@H](CCc1ccccc1)C(=O)O)C(=O)N1CCC[C@H]1C(=O)O [enalaprilat] |  |  | 0.03404 | −0.06381 | −0.1038 |  |  | TNBCType train [1, 10]: MSL; DTIO Corr test [2, 11]: −0.03184; DTIO Corr train [2, 12]: 0.0604 |
| O=S(=O)(O)c1ccc(O)cc1 [4-phenolsulfonic-acid] | −0.03477 | −0.1569 |  |  |  |  |  | IM Corr test ([1]; test cell set): −0.06223; M Corr test ([1]; test cell set): 0.02717; MSL Corr test ([1]; test cell set): 0.006866 |
| CCCCCCCCCCC(C)(C)C(=O)Nc1c(OC)cc(OC)cc1OC [CI-976] |  |  | 0.06082 | −0.082 | −0.03363 | 0.03532 | 0.09198 | TNBCType train [1, 9]: MSL |
| C#Cc1cccc2c1c(C(=O)c1ccc(Cn3c(C)nc4cnccc43)c(F)c1)cn2C(=O)N(C)C [ABT-491] |  |  | −0.08486 | 0.04621 | 0.009812 |  |  | DTIO Corr test [2, 11]: −0.1207; DTIO Corr train [2, 12]: −0.1065 |
| Cc1cc(Nc2nc(N[C@@H](C)c3ccc(F)cc3)c(C#N)cc2F)n[nH]1 [AZ960] |  |  | −0.0625 | 0.008122 | 0.05509 | −0.07766 | −0.135 |  |
| c1ccc2sc(N3CCN(Cc4ccc5c(c4)OCO5)CC3)nc2c1 |  |  | 0.03417 | −0.06017 | −0.05087 | 0.0115 | 0.00776 | TNBCType train [1, 9]: MSL |
| CCN1/C(=C/C(C)=O)Sc2ccc(OC)cc21 [TG-003] |  |  | −0.1049 | 0.03396 | −0.1032 |  |  | TNBCType train [1, 10]: MSL; DTIO Corr test [2, 11]: −0.05387; DTIO Corr train [2, 12]: −0.04255 |
| Cc1ncc(-c2ccnc(Nc3ccc(S(C)(=O)=O)cc3)n2)n1C(C)C [AZD5438] |  |  | −0.1498 | 0.0844 | 0.1271 | −0.1301 | −0.08372 |  |
| Cc1ccc(S(=O)(=O)/C=C/C#N)cc1 [BAY-11-7082] | 0.04014 | −0.00647 | 0.07793 | −0.1474 | 0.0317 |  |  |  |
| PF-477736 | −0.03209 | −0.01779 | 0.05795 | −0.1644 | −0.1066 |  |  |  |
| Nc1nc2c(nc(Br)n2[C@@H]2O[C@@H]3COP(=O)(O)O[C@H]3[C@H]2O)c(=O)[nH]1 [8-bromo-cGMP] | −0.017 | 0.07485 | −0.00708 | −0.06633 | −0.05953 |  |  | TNBCType train [1, 6]: MSL |
| COc1cc2c(NC3CCN(C(C)C)CC3)nc(C3CCCCC3)nc2cc1OCCCN1CCCC1 [UNC0638] |  |  | −0.1264 | 0.1332 | 0.1697 | −0.08839 | −0.07586 |  |
| C=CC(=O)Nc1cccc(Sc2nc(Nc3ccc(N4CCN(C)CC4)cc3)ncc2Cl)c1 [WZ8040] |  |  | −0.07504 | 0.1805 | 0.2895 | 0.0423 | −0.1387 |  |
| Cc1cc(C)c(N(Cc2ccccc2)S(=O)(=O)c2ccc(OCCNC(=O)c3cc4ccccc4o3)cc2)c(C(=O)NO)c1 [WAY-170523] | 0.02955 | 0.0516 |  |  |  |  |  | IM Corr test ([1]; test cell set): −0.0044; M Corr test ([1]; test cell set): −0.01887; MSL Corr test ([1]; test cell set): −0.04718; TNBCType train [1, 3]: MSL |
| CC(C)C[C@@H]1NC(=O)[C@@H](C(C)C)NC(=O)[C@@H]2CCCN2C(=O)[C@@H](CC(=O)O)NC(=O)[C@@H](Cc2c[nH]c3ccccc23)NC1=O [BQ-123] (cyclo(L[dW][dD]P[dV])) | 0.07641 | 0.04394 | 0.0449 | −0.1374 | −0.1421 |  |  | TNBCType train [1, 6]: MSL |
| CCCCC1OC(=O)c2ccccc21 (centres unmarked) [butylphthalide] | −0.1082 | 0.01178 | −0.03693 | −0.03289 | −0.02003 |  |  | TNBCType train [1, 6]: MSL |
| N#CSc1cc(SC#N)c(N)nc1N [PR-619] | 0.05674 | 0.0993 |  |  |  |  |  | IM Corr test ([1]; test cell set): 0.1495; M Corr test ([1]; test cell set): −0.2203; MSL Corr test ([1]; test cell set): −0.1223; DTIO Corr test ([2]; correlation of compound sensitivity with DetermaIO (DTIO), test set): 0.05674; DTIO Corr train ([2]; correlation of compound sensitivity with DetermaIO (DTIO), training set): 0.0993 |
| CN(N=O)C(=O)N[C@H]1C(O)O[C@H](CO)[C@@H](O)[C@@H]1O (mixture of isomers) [streptozotocin] | −0.06131 | 0.03601 |  |  |  |  |  | IM Corr test ([1]; test cell set): −0.07058; M Corr test ([1]; test cell set): 0.07616; MSL Corr test ([1]; test cell set): −0.07788; TNBCType train [1, 3]: MSL |
| c1ccc(C(NCc2cccnc2)(c2ccccc2)c2ccccc2)cc1 [UCL-2077] | −0.07511 | −0.2006 |  |  |  |  |  | IM Corr test ([1]; test cell set): −0.1051; M Corr test ([1]; test cell set): 0.08781; MSL Corr test ([1]; test cell set): 0.1128 |
